Experimental data as given in ChEMBL document CHEMBL1156599, “Nordihydroguaiaretic acid autoxidation produces a schisandrin-like dibenzocyclooctadiene lignan” (J Nat Prod, 2008).

Assay: Stability assessed as half life at pH 7.4
Format: physicochemical
Settings: buffer

## CC(Cc1ccc(O)c(O)c1)C(C)Cc1ccc(O)c(O)c1 (stereo unspecified) [NORDIHYDROGUAIARETIC ACID]
  half-life: 3 h
